The text below walks through data of patent US5308844A, “Substituted 3-piperazinylalkyl-2,3-dihydro-4H-1,3-benzoxazin-4-ones and their use in therapy” (Pierre Fabre Medicament, priority 1991, dated 1994).

Usually IC50 stands for the concentration at which inhibition is half-maximal. The low end stands for greater potency in that assay, the high end for weaker potency in that assay.

Structures can show the parent of a compound that is named as a salt.

Test system in the first data set: not listed separately
Briefly: solubility. It is filed as physicochemical. The settings on record: in DMSO.
On to `COc1ccccc1N1CCN(CCN2COc3ccc(Cl)cc3C2=O)CC1` [Example 14, Hydrochloride of 6-chloro-2.3-dihydro-3-[2-(4-(2-methoxyphenyl)piperazinyl)ethyl]-4H-1,3-benzoxazin-4-one], for which the “soluble in DMSO up to” value is recorded as “up to 1%”.
The same measure, in the same setting: in the case of `COc1ccc2c(c1)C(=O)N(CCN1CCN(c3cccc(C(F)(F)F)c3)CC1)CO2` [Example 16, Hydrochloride of 2.6-dihydro-6-methoxy-3-[2-(4-(3-trifluoromethylphenyl)piperazinyl)ethyl]-4H-1,3-benzoxazin-4-one] it was “up to 7%”.
Same read-out and setting: in the case of `O=C1c2ccccc2OCN1CCN1CCN(c2cccc(Cl)c2)CC1` [Example 9, Hydrochloride of 2.3-dihydro-3-[2-(4-(3-chlorophenyl)piperazinyl)ethyl]-4H-1,3-benzoxazin-4-one] it was “up to 10%”; in that of `COc1ccc2c(c1)C(=O)N(CCN1CCN(c3ccccc3OC)CC1)CO2` [Example 15, Hydrochloride of 6-methoxy-2,3-dihydro-3-[2-(4-(2-methoxyphenyl)piperazinyl)ethyl]-4H-1,3-benzoxazin-4-one], “up to 1.3%”; in that of `O=C1c2ccccc2OCN1CCN1CCN(c2cccc(C(F)(F)F)c2)CC1` [Example 10], “up to 7%”.
Same read-out and setting: with `COc1ccccc1N1CCN(CCN2COc3ccc(C)cc3C2=O)CC1` [Example 13, Hydrochloride of 2.3-dihydro-6-methyl-3-[2-(4-(2-methoxyphenyl)piperazinyl)ethyl]-4H-1,3-benzoxazin-4-one] the entry was “up to 3%”.
On to `O=C1c2ccccc2OCN1CCCCN1CCN(c2cccc(C(F)(F)F)c2)CC1` [Example 1, Monohydrochloric 3-dihydro-3-[4-(4-(3-trifluoromethylphenyl)piperazinyl)butyl]-4H-1,3-benzoxazin-4-one], for which the “soluble in DMSO up to” value was “up to 6%”.
As to `COc1ccc(N2CCN(CCCCN3COc4cc(OC)c(OC)cc4C3=O)CC2)cc1OC` [Example 18, Hydrochloride of 2.3-dihydro-6,7-dimethoxy-3-[4-(4-(3,4-dimethoxyphenyl)piperazinyl)butyl]-4H-1,3-benzoxazin-4-one], the “soluble in DMSO up to” value is listed as “up to 2%”.
Same read-out and setting: in the case of `CC1Oc2ccccc2C(=O)N1CCN1CCN(c2cccc(C(F)(F)F)c2)CC1` (racemic) [Example 19, Hydrate of the (dl) hydrochloride of 2.3-dihydro-2-methyl-3-[2-(4-(3-trifluoromethylphenyl)piperazinyl)ethyl]-4H-1,3-benzoxazin-4-one] it was “up to 2%”.

Staying with this data set, now noted: in water.
With `COc1ccccc1N1CCN(CCN2COc3ccccc3C2=O)CC1` [Example 5, Dihydrochloride of 2,3-dihydro-3-[2-(4-(2-methoxyphenyl)piperazinyl)ethyl]-4H-1,3-benzoxazin-4-one], the “soluble in water up to” value was “up to 6%”.
`COc1ccccc1N1CCN(CCN2COc3ccccc3C2=O)CC1` [Example 5 monohydrochloride]: the “soluble in water up to” value is “up to 0.9%”.

The data set is the same for the next values; noted with them: water, in water; read-out: soluble in water up to.
For the compound `Cc1ccccc1N1CCN(CCN2COc3ccccc3C2=O)CC1` [Example 8, Monohydrochloride of 2,3-dihydro-3-[2-(4-(2-methylphenyl)piperazinyl)ethyl]-4H-1,3-benzoxazin-4-one], the solubility was at most 3500 µg/mL.
`O=C1c2ccccc2OCN1CCCN1CCN(c2ccccc2)CC1` [Example 2, Monohydrochloride of 2,3-dihydro-3-[3-(4-phenylpiperazinyl)propyl]-4H-1,3-benzoxazin-4-one]: the solubility is at most 10000 µg/mL.
Still for that read-out and setting: with `COc1ccccc1N1CCN(CCCN2COc3ccccc3C2=O)CC1` [Example 6, Hydrochloride of 2,3-dihydro-3-[3-(4-(2-methoxyphenyl)piperazinyl)propyl]-4H-1,3-benzoxazin-4-one] the figure was at most 5000 µg/mL; with `O=C1c2ccccc2OCN1CCN1CCN(c2ccccn2)CC1` [Example 11, Hydrochloride of 2,3-dihydro-3-[2-(4-(2-pyridinyl)piperazinyl)ethyl]-4H-1,3-benzoxazin-4-one], at most 3000 µg/mL.
In the case of `O=C1c2ccccc2OCN1CCCCN1CCN(c2ccccc2)CC1` [Example 4, Hydrochloride of 2.3-dihydro-3-[4-(4-phenylpiperazinyl)butyl]-4H-1,3-benzoxazin-4-one], the solubility is at most 5000 µg/mL.
For the compound `O=C1c2ccccc2OCN1CCN1CCN(c2ncccn2)CC1` [Example 12, Hydrochloride of 2,3-dihydro-3-[2-(4-(2-pyrimidinyl)piperazinyl)ethyl]-4H-1,3-benzoxazin-4-one], the solubility was at most 12000 µg/mL.
The same measure, in the same setting: with `COc1cc2c(cc1OC)C(=O)N(CCCCN1CCN(c3ccccc3OC)CC1)CO2` [Example 17, Hydrochloride of 2.3-dihydro-6,7-dimethoxy-3-[4-(4-(2-methoxyphenyl)piperazinyl)butyl]-4H-1,3-benzoxazin-4-one] the figure was at most 2000 µg/mL; with `O=C1c2ccccc2OCN1CCN1CCN(c2ccccc2)CC1` [Example 3, Dihydrochloride of 2,3-dihydro-3-[2-(4-phenylpiperazinyl)ethyl]-4H-1,3-benzoxazin-4-one], at most 10000 µg/mL.
`COc1ccccc1N1CCN(CCCCN2COc3ccccc3C2=O)CC1` [Example 7, Monohydrate of the dihydrochloride of 2,3-dihydro-3-[4-(4-(2-methoxyphenyl)piperazinyl)butyl]-4H-1,3-benzoxazin-4-one]: the solubility was at most 30000 µg/mL.

The next data set concerns the target T1, 5HT1 A receptors (Rattus norvegicus, UniProt P19327).
T1 construct: The hippocampus is ground in a Polytrone; from tissue; host or cells: rat hippocampus membranes (male Charles River rats)
T1 sequence (P19327 1-422): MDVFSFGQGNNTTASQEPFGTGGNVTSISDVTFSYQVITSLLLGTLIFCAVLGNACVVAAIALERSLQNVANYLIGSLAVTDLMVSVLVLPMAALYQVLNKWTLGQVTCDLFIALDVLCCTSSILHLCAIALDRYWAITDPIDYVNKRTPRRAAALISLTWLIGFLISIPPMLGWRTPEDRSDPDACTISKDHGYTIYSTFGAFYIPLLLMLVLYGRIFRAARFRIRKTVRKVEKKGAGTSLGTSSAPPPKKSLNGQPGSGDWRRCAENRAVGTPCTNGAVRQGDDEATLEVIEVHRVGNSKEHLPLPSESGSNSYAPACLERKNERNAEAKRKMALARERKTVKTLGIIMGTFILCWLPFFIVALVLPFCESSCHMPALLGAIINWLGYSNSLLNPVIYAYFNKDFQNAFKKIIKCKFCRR
The data set can be described thus: 5HT1 A binding (3H-8-OH-DPAT, hippocampus membranes). Set-up: species or system Male Charles River rats. The note with it: 3H-8-OH-DPAT ligand 1 nM, 30 min at 25° C. As to the method: The 5HT1 A binding studies were carried out according to the technique of Peroutka (cf. Peroutka S. J., J. Neurochem. 47, p. 529-40, 1986). Male Charles River rats are stunned and decapitated, and the brain is removed and dissected. The different cerebral areas obtained are used or preserved at […]. The hippocampus is ground in a Polytrone® (20 seconds at 7) in 20 volumes of 50 mM tris HCl buffer pH 7.7 at 25° C.) and centrifuged at 45000 g for 10 min. The pellet is separated, taken up in the same volume of tris buffer and incubated for 10 min at 37° C. and then recentrifuged for 10 min at 45000 g. The pellet is finally taken up in 100 volumes of tris HCl buffer containing 10 μM of pargyline, 4 mM of CaCl2 and 0.1% of ascorbic acid. The mixture obtained is homogenized in a Dounce.
The binding is carried out starting with 0.8 ml of the above membrane suspension to which 0.1 ml of ^3 H-8-OH-DPAT ligand (at a concentration of 1 nM) and either 0.1 ml of tris buffer (control) or the compound of the above invention is added. After incubation for 30 min at 25° C., the mixture is filtered on GF/B (Whatman) and rinsed with 5 ml of cold tris HCl buffer. The residue and the filter are then introduced into a vial containing 3 ml of Instagel liquid scintillant (Packard) and the radioactivity is measured in a Packard counter (Tri-Carbs).
The IC50 are determined graphically for a concentration of ligand of 1 nM.
Table I gives the IC50 for the 5HT1 A receptors for certain derivatives of the invention by way of nonlimiting example.
The compound `COc1ccccc1N1CCN(CCN2COc3ccc(Cl)cc3C2=O)CC1` [Example 14, Hydrochloride of 6-chloro-2.3-dihydro-3-[2-(4-(2-methoxyphenyl)piperazinyl)ethyl]-4H-1,3-benzoxazin-4-one] had an IC50 of 5 nM.
The same measure, in the same setting: in the case of `COc1ccccc1N1CCN(CCN2COc3ccccc3C2=O)CC1` [Example 5, Dihydrochloride of 2,3-dihydro-3-[2-(4-(2-methoxyphenyl)piperazinyl)ethyl]-4H-1,3-benzoxazin-4-one] it was 5 nM.
Same read-out and setting: with `COc1ccc2c(c1)C(=O)N(CCN1CCN(c3ccccc3OC)CC1)CO2` [Example 15, Hydrochloride of 6-methoxy-2,3-dihydro-3-[2-(4-(2-methoxyphenyl)piperazinyl)ethyl]-4H-1,3-benzoxazin-4-one] the figure was 2.2 nM; with `O=C1c2ccccc2OCN1CCCCN1CCN(c2cccc(C(F)(F)F)c2)CC1` [Example 1, Monohydrochloric 3-dihydro-3-[4-(4-(3-trifluoromethylphenyl)piperazinyl)butyl]-4H-1,3-benzoxazin-4-one], 7 nM.
